Measured values published in US4401660A, “Ester derivatives of 5-O-mycaminosyl tylonolide and method of using same” (Eli Lilly and Company, priority 1981, dated 1983).

How the values were obtained:
[1] = tested on: Haemophilus influenzae Holt; experiment: MIC, standard agar-dilution assay (Table II); type: cell-based; design: unit not given here; settings: ampicillin-sensitive strain
Procedure: (§1) The MIC's in Table II were determined by standard agar-dilution assays. The MIC's in Table III were obtained using a conventional broth-dilution microtiter test.

[2] = tested on: Haemophilus influenzae R252; experiment: MIC, standard agar-dilution assay (Table II); type: cell-based; design: unit not given here; settings: Haemophilus influenzae R252, ampicillin-resistant strain
Procedure: as §1

[3] = tested on: Staphylococcus aureus S13E; experiment: MIC, standard agar-dilution assay (Table II); type: cell-based; design: unit not given here
Procedure: as §1

[4] = tested on: Staphylococcus aureus V41; experiment: MIC, standard agar-dilution assay (Table II); type: cell-based; design: unit not given here; settings: Staphylococcus aureus V41, penicillin-resistant strain
Procedure: as §1

[5] = tested on: Staphylococcus aureus X1.1; experiment: MIC, standard agar-dilution assay (Table II); type: cell-based; design: unit not given here
Procedure: as §1

[6] = tested on: Staphylococcus aureus X400; experiment: MIC, standard agar-dilution assay (Table II); type: cell-based; design: unit not given here; settings: Staphylococcus aureus X400, methicillin-resistant strain
Procedure: as §1

[7] = tested on: Staphylococcus epidermidis EPI1; experiment: MIC, standard agar-dilution assay (Table II); type: cell-based; design: unit not given here
Procedure: as §1

[8] = tested on: Staphylococcus epidermidis EPI2; experiment: MIC, standard agar-dilution assay (Table II); type: cell-based; design: unit not given here
Procedure: as §1

[9] = tested on: Streptococcus Group D 9960; experiment: MIC, standard agar-dilution assay (Table II); type: cell-based; design: unit not given here
Procedure: as §1

[10] = tested on: Streptococcus Group D X66; experiment: MIC, standard agar-dilution assay (Table II); type: cell-based; design: unit not given here
Procedure: as §1

[11] = tested on: Streptococcus pneumoniae Park I; experiment: MIC, standard agar-dilution assay (Table II); type: cell-based; design: unit not given here
Procedure: as §1

[12] = tested on: Streptococcus pyogenes C203; experiment: MIC, standard agar-dilution assay (Table II); type: cell-based; design: unit not given here
Procedure: as §1

Mycoplasma gallisepticum = experiment: MIC, broth-dilution microtiter test (Table III); type: cell-based; design: unit not given here
Procedure: as §1

Mycoplasma hyorhinis = experiment: MIC, broth-dilution microtiter test (Table III); type: cell-based; design: unit not given here
Procedure: as §1

Mycoplasma synoviae = experiment: MIC, broth-dilution microtiter test (Table III); type: cell-based; design: unit not given here
Procedure: as §1

[13] = tested on: Pasteurella haemolytica 22C; experiment: MIC, broth-dilution microtiter test (Table III); type: cell-based; design: unit not given here
Procedure: as §1

[14] = tested on: Pasteurella haemolytica 23C; experiment: MIC, broth-dilution microtiter test (Table III); type: cell-based; design: unit not given here
Procedure: as §1

[15] = tested on: Pasteurella haemolytica 41D; experiment: MIC, broth-dilution microtiter test (Table III); type: cell-based; design: unit not given here
Procedure: as §1

[16] = tested on: Pasteurella multocida 17E; experiment: MIC, broth-dilution microtiter test (Table III); type: cell-based; design: unit not given here; settings: bovine isolate
Procedure: as §1

[17] = tested on: Pasteurella multocida 22A; experiment: MIC, broth-dilution microtiter test (Table III); type: cell-based; design: unit not given here
Procedure: as §1

[18] = tested on: Pasteurella multocida 40G; experiment: MIC, broth-dilution microtiter test (Table III); type: cell-based; design: unit not given here
Procedure: as §1

[19] = tested on: Pasteurella multocida 60A; experiment: MIC, broth-dilution microtiter test (Table III); type: cell-based; design: unit not given here; settings: avian isolate
Procedure: as §1

[20] = tested on: Pasteurella multocida 68C; experiment: MIC, broth-dilution microtiter test (Table III); type: cell-based; design: unit not given here
Procedure: as §1

Staphylococcus aureus = experiment: MIC, broth-dilution microtiter test (Table III); type: cell-based; design: unit not given here
Procedure: as §1

Streptococcus sp. 80 = experiment: MIC, broth-dilution microtiter test (Table III); type: cell-based; design: unit not given here
Procedure: as §1

Pasteurella multocida = experiment: Treatment of Pasteurella infections in chicks (Table V); type: in vivo, one-day-old chicks; settings: Pasteurella multocida, sc, 4 h; 30 mg/kg by subcutaneous injection one and four hours post challenge; read-out: Deaths in Treated Chicks/Number Treated (converted)
Outline: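 Dosing was 30 mg/kg by subcutaneous injection, one and four hours after challenge. Day-old chicks received 0.1 ml of a 10^-3 dilution of a 20-hour tryptose broth culture of avian P. multocida subcutaneously. Nonmedicated infected chicks served as controls, ten per group.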

SMILES	minimal inhibitory concentration (MIC) [1]	minimal inhibitory concentration (MIC) [2]	minimal inhibitory concentration (MIC) [3]	minimal inhibitory concentration (MIC) [4]	minimal inhibitory concentration (MIC) [5]	minimal inhibitory concentration (MIC) [6]	minimal inhibitory concentration (MIC) [7]	minimal inhibitory concentration (MIC) [8]	minimal inhibitory concentration (MIC) [9]	minimal inhibitory concentration (MIC) [10]	minimal inhibitory concentration (MIC) [11]	minimal inhibitory concentration (MIC) [12]	minimal inhibitory concentration (MIC) (Mycoplasma gallisepticum)	minimal inhibitory concentration (MIC) (Mycoplasma hyorhinis)	minimal inhibitory concentration (MIC) (Mycoplasma synoviae)	minimal inhibitory concentration (MIC) [13]	minimal inhibitory concentration (MIC) [14]	minimal inhibitory concentration (MIC) [15]	minimal inhibitory concentration (MIC) [16]	minimal inhibitory concentration (MIC) [17]	also measured
CCC1OC(=O)CC(O)C(C)C(OC2OC(C)C(O)C(N(C)C)C2OC(C)=O)C(CC=O)CC(C)C(=O)C=CC(C)=CC1COC(=O)COc1ccccc1 (centres unmarked) [Compound 35]	1	1	0.125	0.125	0.125	0.125	0.125	0.125	0.125	0.125	0.03	0.06	< 0.05	3.12	0.097	3.12	3.12	1.56	1.56	6.25	minimal inhibitory concentration (MIC) [18]: 3.12; minimal inhibitory concentration (MIC) [19]: 1.56; minimal inhibitory concentration (MIC) [20]: 1.56; minimal inhibitory concentration (MIC) (Staphylococcus aureus): 0.39; minimal inhibitory concentration (MIC) (Streptococcus sp. 80): 0.097; mortality at 30 mg/kg (Pasteurella multocida): 10%
CCC1OC(=O)CC(O)C(C)C(OC2OC(C)C(OC(C)=O)C(N(C)C)C2OC(C)=O)C(CC=O)CC(C)C(=O)C=CC(C)=CC1COS(=O)(=O)c1ccc(C)cc1 (centres unmarked) [Compound 55]	1	1	0.25	0.125	0.125	0.25	0.25	0.25	0.125	0.125	0.03	0.06	0.05	0.78	0.05	3.12	3.12	6.25	3.12	6.25	minimal inhibitory concentration (MIC) [18]: 6.25; minimal inhibitory concentration (MIC) [19]: 3.12; minimal inhibitory concentration (MIC) [20]: 3.12; minimal inhibitory concentration (MIC) (Staphylococcus aureus): 0.195; minimal inhibitory concentration (MIC) (Streptococcus sp. 80): 0.05; mortality at 30 mg/kg (Pasteurella multocida): 100%
CCC1OC(=O)CC(O)C(C)C(OC2OC(C)C(O)C(N(C)C)C2OC(C)=O)C(CC=O)CC(C)C(=O)C=CC(C)=CC1COC(=O)CCCC(=O)OC (centres unmarked) [Compound 71]	2	2	0.25	0.25	0.25	0.25	0.25	0.25	0.5	0.25	0.03	0.25	0.195	12.5	0.78	50	12.5	12.5	6.25	3.12	minimal inhibitory concentration (MIC) [18]: 3.12; minimal inhibitory concentration (MIC) [19]: 6.25; minimal inhibitory concentration (MIC) [20]: 6.25; minimal inhibitory concentration (MIC) (Staphylococcus aureus): 0.78; minimal inhibitory concentration (MIC) (Streptococcus sp. 80): 1.56; mortality at 30 mg/kg (Pasteurella multocida): 60%
CCC1OC(=O)CC(O)C(C)C(OC2OC(C)C(O)C(N(C)C)C2OC(C)=O)C(CC=O)CC(C)C(=O)C=CC(C)=CC1COC(=O)OC (centres unmarked) [Compound 73]	1	2	0.25	0.25	0.25	0.25	0.25	0.25	0.25	0.25	0.03	0.25	0.097	0.39	0.097	6.25	6.25	3.12	6.25	> 50	minimal inhibitory concentration (MIC) [18]: 6.25; minimal inhibitory concentration (MIC) [19]: 6.25; minimal inhibitory concentration (MIC) [20]: 3.12; minimal inhibitory concentration (MIC) (Staphylococcus aureus): 0.78; minimal inhibitory concentration (MIC) (Streptococcus sp. 80): 0.39; mortality at 30 mg/kg (Pasteurella multocida): 0%
